Results: patent US20250042848A1, “DEUTERATED FUNCTIONALIZED DERIVATIVES OF alpha-ALANINE, IN [sequence] FOR THE TREATMENT OF NEUROLOGICAL DISEASES” (UNIWERSYTET JAGIELLONSKI, priority 2021, published 2025)

Legend:
[1] = test system: psychomotor seizures induced by a 44 mA, 6 Hz stimulus in mice; assay: Psychomotor seizure test 6 Hz (44 mA); format: in vivo; settings: in mg/kg
Experimental: (§1) Initial screening was performed on groups of 4 mice. The mean effective dose (ED50) in a given test and the neurotoxic dose in the rotarod test (TD50) were estimated on the basis of the results obtained on 3-4 groups of animals consisting of 6 animals.
(§2) In the psychomotor seizure test (6 Hz test), seizures were induced by a 32 mA and/or 44 mA electrical stimulus of a frequency of 6 pulses per second. An electrical pulse was generated using an electric shock generator (ECT Unit 57800; Ugo Basile, Gemonio, Italy) and delivered to the animal using corneal electrodes. Before starting the test, the eye surface was gently moistened with a solution of local anesthetic (1% lidocaine solution). The study was conducted 30 minutes/2 hours after intraperitoneal administration of the compounds at various doses. An electrical stimulus was delivered continuously for a period of 3 seconds, followed by observation of the animal for a period of 10 seconds. During the experiment, the number of animals with an episode of psychomotor convulsions was counted: motor inhibition, staggering, maintaining a sitting posture, forelimb clonus, twitching of the vibrissae and Straub-tail were observed (Leclercq, K.; Kaminski, R.M. Epilepsia 2015, 56, 310-318).
(§3) The ED50 (effective dose) and TD50 (toxic dose) values along with the corresponding 95% confidence limits were calculated based on the Litchfield and Wilcoxon method (Litchfield, J.T.; Wilcoxon, F. J. Pharmacol. Exp. Ther. 1949, 96, 99-113). To perform a statistical evaluation of the results in the scPTZ test, one-way ANOVA variance analysis followed by Dunnett's post hoc test were used. The values were considered statistically significant if p<0.05.

[2] = test system: maximal electroshock seizures in mice; assay: Maximal electroshock seizure test (MES); format: in vivo
Experimental: as §1
In the maximal electroshock seizure test (MES), the seizures were induced by 500 V, 25 mA electrical stimulus of 0.2 s in duration. The electrical pulse was generated using an electric shock generator (Rodent shocker, Type 221, Hugo Sachs Elektronik, Germany) and delivered to the animal using electrodes placed on the auricles. The study was conducted 30 minutes/2 hours after intraperitoneal administration of the compounds at various doses. During the experiment, the number of animals that experienced a seizure episode in the form of hindlimb tonic extension was counted (Łuszczki, J.J. et al. Fundam. Clin. Pharmacol. 2008, 22, 69-74).
as §3

[3] = test system: motor coordination of mice; assay: Rotarod test (motor coordination, acute neurotoxicity); format: in vivo; settings: in mg/kg
Experimental: as §1
The effect of the tested compounds on motor coordination was assessed in the rotarod test (May Commat, RR 0711 RotaRod, Turkey). The day before the actual experiment, the mice were trained on a rod rotating at 10 revolutions per minute (rpm) for 3 minutes. The experiment was performed 30 minutes and 2 hours after administration of the compounds. The motor coordination of the animals was tested at the speed of the rotating rod: 10 rpm for 60 seconds. The measure of neurotoxicity was the inability to stay on the rod for a given time (Łuszczki, J.J. et al. Eur. Neuropsychopharmacol. 2005, 6, 609-616).
as §3

[4] = test system: human liver microsomes (HLMs); assay: In vitro metabolic stability, human liver microsomes; format: in vitro ADME; settings: 120-minute incubation with HLMs
Experimental: (§4) Metabolic stability assessment was performed using mouse (MLMs) and human (HLMs) liver microsomes purchased from Sigma-Aldrich (St. Louis, MO, USA). The detailed methodology is described in the literature (Kamiński et al. J. Med. Chem. 2015, 58, 5274-5286). The reaction mixture was prepared by mixing […] of the tested compound with mouse or human microsomes (1 mg/mL) in 10 mM TRIS-HCl buffer. The reaction mixture was pre-incubated for 5 min at 37° C. After the initial incubation, 50 μL of the NADPH Regeneration System (Promega, Madison, WI, USA) was added to initiate the reaction. The reaction mixture was then incubated for 120 min at 37° C. 200 μL of cold extra pure methanol was added to complete the reaction. The mixture was then centrifuged at 14,000 g for 15 min and the supernatants were analyzed using a Waters ACQUITY™ TQD LC/MS system with a TQ detector (Waters, Milford, USA). Each experiment was performed in triplicate.

[5] = test system: psychomotor seizures induced by a 32 mA, 6 Hz stimulus in mice; assay: Psychomotor seizure test 6 Hz (32 mA); format: in vivo
Experimental: as §1, §2, §3

CYP3A4 = CYP3A4 (Homo sapiens, UniProt P08684); settings: cited from earlier work
CYP2D9 = settings: cited from earlier work
[6] = test system: pentylenetetrazole-induced clonic seizures in mice; assay: Subcutaneous pentylenetetrazole (scPTZ) seizure test; format: in vivo; settings: for ED50 scPTZ: mice, in mg/kg; for latency of the first episode of clonic seizures in the scPTZ test: control 740+212.5 seconds
Experimental: as §1
In the subsutaneous pentylenetetrazole seizure test, the animals received pentylenetetrazole at a dose of 100 mg/kg. Test compounds were administered 30 minutes and 2 hours before the experiment. After PTZ administration, the animals were placed individually in transparent cages and observed for a period of 30 minutes/2 hours. During the experiment, the number of animals with a clonic seizure lasting at least 3 s with loss of balance was counted. In addition, the latency of the onset of the first clonic seizure was measured and compared with the control group (Ferreri, G. et al. Pharmacol. Biochem. Behav. 2004, 77, 859-894; Łączkowski, K. et. al. J. Enzym Inhib. Med. Chem. 2016, 31, 1576-1582).
as §3

[7] = test system: mouse liver microsomes (MLMs); assay: In vitro metabolic stability, mouse liver microsomes; format: in vitro ADME; settings: 120-minute incubation with MLMs, NADPH
Experimental: as §4

[8] = test system: human liver microsomes (HLMs); settings: cited from earlier work
[9] = test system: spontaneous locomotor activity of mice; settings: mouse, in vivo; cited from earlier work
[10] = test system: motor coordination of mice; settings: in vivo; cited from earlier work
[11] = 0.5 h after i.p. administration
[12] = 2.0 h after i.p. administration

Sequence of CYP3A4 (P08684 whole entry): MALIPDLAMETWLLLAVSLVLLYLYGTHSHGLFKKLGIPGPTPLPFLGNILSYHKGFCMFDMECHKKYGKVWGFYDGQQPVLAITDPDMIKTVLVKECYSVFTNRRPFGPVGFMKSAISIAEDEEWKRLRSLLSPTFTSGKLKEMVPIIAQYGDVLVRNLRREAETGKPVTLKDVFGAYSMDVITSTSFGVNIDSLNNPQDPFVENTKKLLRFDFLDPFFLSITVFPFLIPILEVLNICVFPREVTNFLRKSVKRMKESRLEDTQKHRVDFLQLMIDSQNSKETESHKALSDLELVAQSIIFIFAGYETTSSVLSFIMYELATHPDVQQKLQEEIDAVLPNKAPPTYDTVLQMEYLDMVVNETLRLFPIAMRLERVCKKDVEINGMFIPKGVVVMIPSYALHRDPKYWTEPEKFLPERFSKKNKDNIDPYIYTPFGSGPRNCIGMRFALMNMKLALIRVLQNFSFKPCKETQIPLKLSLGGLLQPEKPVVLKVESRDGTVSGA

SMILES	ED50 6 Hz (44 mA) [1, 11]	ED50 6 Hz (44 mA) [1, 12]	ED50 MES [2, 11] [mg/kg]	ED50 MES [2, 12] [mg/kg]	TD50 Rotarod [3, 11]	TD50 Rotarod [3, 12]	metabolic stability [4]	ED50 6 Hz (32 mA) [5, 11] [mg/kg]	ED50 6 Hz (32 mA) [5, 12] [mg/kg]	interaction with CYP3A4 isoform of cytochrome P-450 (CYP3A4)	interaction with CYP2D9 isoform of cytochrome P-450 (CYP2D9)	ED50 scPTZ [6, 11]	ED50 scPTZ [6, 12]	latency of the first episode of clonic seizures in the scPTZ test ([6]; dose 40 mg/kg)	latency of the first episode of clonic seizures in the scPTZ test ([6]; dose 60 mg/kg)	metabolic stability (metabolites in UPLC chromatograms) [7]	metabolic stability on human microsomes [8]	sedative effect in spontaneous locomotor activity test on mice [9]	effect on mouse motor coordination in the rotarod test [10]
[2H]C([2H])(NC(=O)[C@@H](C)N1C(=O)C([2H])([2H])C([2H])([2H])C1=O)c1ccccc1 [d6-(R)-5, (R)-2-(2,5-dioxopyrrolidin-1-yl-3,3,4,4-d4)-N-(phenylmethyl-d2) propanamide]	85.6	50.8	33.4	28.7	>100	>300	high metabolic stability	–	–	–	–	–	–	–	–	–	–	–	–
[2H]C1([2H])C(=O)N([C@H](C)C(=O)NCc2ccccc2F)C(=O)C1([2H])[2H] [d4-(R)-4, (R)—N-(2-fluorobenzyl)-2-(2,5-dioxopyrrolidin-1-yl-3,3,4,4-d4) propanamide]	51.6	36.3	20.5	25.3	127.2	>300	high metabolic stability	12.8	19.8	–	–	–	–	–	–	–	–	–	–
C[C@H](C(=O)NCc1ccccc1)N1C(=O)CCC1=O [Compound 1, reference compound]	77.3	>200	57.7	95.3	236.2	>300	high metabolic stability	16.8	> 130	no interaction	no interaction	30.6	>130	1568+150.9 seconds	1467+210.8 seconds	no metabolites appeared	very high metabolic stability	no sedative effect	minimal effect
[2H]c1c([2H])c([2H])c(C([2H])([2H])NC(=O)[C@@H](C)N2C(=O)C([2H])([2H])C([2H])([2H])C2=O)c([2H])c1[2H] [d11-(R)-6, (R)-2-(2,5-dioxopyrrolidin-1-yl-3,3,4,4-d4)-N-((phenyl-d5)methyl-d2) propanamide]	57.6	70.4	29.5	33.8	>100	>300	high metabolic stability	–	–	–	–	–	–	–	–	–	–	–	–
[2H]c1c([2H])c([2H])c(CNC(=O)[C@@H](C)N2C(=O)C([2H])([2H])C([2H])([2H])C2=O)c([2H])c1[2H] [d9-(R)-2, (2R)-2-(2,5-dioxopyrrolidin-1-yl-3,3,4,4-d4)-N-((phenyl-d5)methyl) propanamide]	78.3	109.8	45	57.7	165.4	>300	high metabolic stability	18.2	68	–	–	–	–	–	–	–	–	–	–
[2H]C([2H])(NC(=O)[C@@H](C)N1C(=O)C([2H])([2H])C([2H])([2H])C1=O)c1ccccc1F [d6-(R)-7, (R)-2-(2,5-dioxopyrrolidin-1-yl-3,3,4,4-d4)-N-((2-fluorophenyl)methyl-d2) propanamide]	25.1	33.5	–	–	>100	>300	high metabolic stability	12.5	13.4	–	–	–	–	–	–	–	–	–	–
